Experimental findings from US20260315497A1, “COMPOSITION FOR TREATING EPILEPSY” (CanaQuest Medical Corp., priority 2022, published 2026) are described below.

What all share (format): in vivo, Male, CF-1 male mice
Series [1] can be described thus: Maximal Electroshock Seizure (MES) Model in mice, Initial Tests. The following applies: Mus musculus, ip, MES 50 mA, 60 Hz, 0.2 sec, i.p., 2 hours after injection, 10 mice per dose, read-out: ED50 (effective dose to protect 50% of mice). On the procedure:
The composition was tested using the Maximal Electroshock Seizure (MES) Model. This is an established procedure to provide an indication of a compound's ability to prevent seizure spread.
(§1) Subjects Male, CF-1 male mice (18-25 grams) were used as subjects. They were housed under standard conditions in the vivarium at the CCBR. They were given 2 days (minimum) to acclimate before testing began.
(§2) Drugs and Doses CBD was provided in pure form and in the described composition. Two four-point dose-response curves were done, one for the pure form CBD and one for the described composition. Ten mice were tested at each dose. (Mice were not re-used.) Compounds were injected intraperitoneally. Testing was done 2 hours after injection. Drugs were injected at a constant volume, and were diluted as necessary using a vehicle of 1:1:18 (Cremophor:alcohol:saline). Dilution is necessary to achieve volumes large enough for injection. Doses were: 0 (vehicle), 25, 50, 100, 200 mg/kg. A 400 mg/kg dose was added later to extend the standard CBD curve.
MES Procedure The MES stimulus consisted of 0.2 sec of 60 Hz since-wave current administered at an intensity of 50 mA via corneal electrodes. The percentage of mice protected against the tonic hindlimb extension component of the resulting seizure was measured. Mice were then euthanized following the procedure.

The nature of series [2]: Toxicity Assessment: ataxia, Loscher scale, Initial Tests. The following applies: just before the MES test, i.p., standard CBD at any dose. On the procedure: as §1, §2
Toxicity Assessment Ataxia (impaired movement) was assessed using the Loscher scale and was done just before the MES test.

Series [3] can be described thus: MES test in mice, Further Tests. The following applies: Mus musculus, ip, MES 50 mA, 60 Hz, 0.2 sec, i.p., 2 hours after injection, Litchfield and Wilcoxon method, read-out: ED50 (effective dose to protect 50% of mice). The source says: (§3) Subjects Male, CF-1 male mice (18-25 grams) were used as subjects. They were housed under standard conditions in a vivarium at the University of Toronto (CCBR). They were given 2 days (minimum) to acclimate before testing began.
(§4) Drugs and Doses CBD was provided in the form of: 1) standard CBD isolate, 2) CBD in DHA/EPA without emulsification (2% DHA, 2% EPA, 12% “stabilizer”), 3) CBD emulsified in DHA/EPA to produce larger particles (66.2 nm diameter) and 4) CBD emulsified in DHA/EPA to produce smaller particles (32.7 nm diameter). Drugs were injected intraperitoneally at a constant volume, and were diluted as necessary using a vehicle of 1:1:18 (Cremophor:alcohol:saline). Dilution is necessary to achieve volumes large enough for injection. Doses of CBD ranged from 0 (vehicle) to 400 mg/kg. As in our past studies, the MES stimulus was given 2 hours after injection. Dose-response curves were done for each formulation.
MES Procedure The MES stimulus consisted of 0.2 sec of 60 Hz since-wave current administered at an intensity of 50 mA via corneal electrodes. The percentage of mice protected against the tonic hindlimb extension component of the resulting seizure was measured. […]
(§5) Toxicity Assessment Ataxia (impaired movement) was assessed using the Loscher scale and was done just before the MES test. Loscher scores of 2-5 were scored a “toxicity present”. […]

A short description of series [4]: Toxicity Assessment: ataxia, Loscher scale, Further Tests.
From the text: as §3, §4, §5
The Litchfield/Wilcoxon method could not be applied to the toxicity data for technical reasons, so TD50s were calculated from line plots.

Molecules are shown by their SMILES.

Usually ED50 stands for the midpoint of the dose-response relation. What is called TD50 is the dose at which the toxic effect under study appears in half of the subjects. Turning to `C=C(C)[C@@H]1CCC(C)=C[C@H]1c1c(O)cc(CCCCC)cc1O` [regular CBD, cannabidiol], the ED50 in series [1] amounted to 162 mg/kg; in series [3], 146 mg/kg. The signs of toxicity result in series [2] is recorded as “No mice showed any signs of toxicity”. This compound came in with a TD25 in series [4] (Loscher scores of 2-5 = toxicity present, i.p., highest dose tested) of 400 mg/kg. Besides, the TD50 at 2 h in series [4] (mouse, in vivo, ip, speculated to be higher than the highest dose tested) was more than 400 mg/kg.
